Data as given in patent US6159932A, “Endoparasiticidal compositions” (Bayer Aktiengesellschaft, priority 1995, dated 2000).

Tests used:
[1] = test system: Nematospiroides dubius; experiment: In vivo nematode test, Nematospiroides dubius in the mouse; conditions: oral
Protocol: Nematospiroides dubius in the Mouse
Mice are infected experimentally with nematodes of the species Nematospiroides dubius. For infection, the mice are administered orally with Nematospiroides dubius as 60 filariform larvae.
After the prepatency period has expired, the suspended active substances are administered orally on day 12 after infection.
(§1) Determination of the Activity
The mice are selected on day 20 after infection. The adult parasites in the Duodenum are counted by means of a compressor. The success of treatment in the dose group is made relative to the untreated control group.

[2] = test system: Heterakis spumosa; experiment: In vivo nematode test, Heterakis spumosa in the mouse; conditions: oral
Protocol: Heterakis spumosa in the Mouse
Mice are infected experimentally with nematodes of the species Heterakis spumosa. For infection, the mice are administered orally with Heterakis spumosa as 90 embryonate eggs.
After the prepatency period has expired, the suspended active substances are administered orally on day 46 after infection.
as §1
The mice are selected on day 54 after infection. The adult parasites are counted in the colon and caecum using a microscope. The success of treatment in the dose group is made relative to the untreated control group.

[3] = test system: Ancylostoma caninum; experiment: In-vivo nematode test, Ancylostoma caninum in dogs; conditions: oral
Protocol: Ancylostoma caninum in dogs
Beagle puppies were experimentally infested with hookworms (Ancylostoma caninum). Amount of infestation material were 250 L3 larvae.
After the prepatent period, when mature worms are present within the gastrointestinal tract, the dogs were orally treated with the test compounds as pure active in gelatine capsules.
Determination of the Efficacy was Carried Out According to the Following Two Methods
1. Counts of worm eggs within the dogs faces before and after treatment.
2. Percent efficacy at a critical test calculated using the formula: [formula]

[4] = test system: hookworm and whipworm; conditions: human medicine, high dosage on several days in succession; cited from earlier work
[5] = test system: hookworm Uncinaria stenocephala; conditions: 500 μg/kg, dogs; cited from earlier work
[6] = ivermectin B1a/B1b 0.1 mg/kg alone

Compound: 22,23-dihydroavermectins B1a /B1b [Ivermectin B1a /B1b]
- Reduction rate [1, 6]: 0%
- Reduction rate [2, 6]: < 50%
- Reduction rate ([3]; ivermectin B1a/B1b 0,01 mg/kg alone): 100%
- Reduction rate ([3]; ivermectin B1a/B1b 0,001 mg/kg alone): 0%
- efficacy in hookworm and whipworm infected patients [4]: ineffective

Compound: CC(C)C[C@H]1C(=O)O[C@H](Cc2ccccc2)C(=O)N(C)[C@@H](CC(C)C)C(=O)O[C@H](C)C(=O)N(C)[C@@H](CC(C)C)C(=O)O[C@H](Cc2ccccc2)C(=O)N(C)[C@@H](CC(C)C)C(=O)O[C@H](C)C(=O)N1C [PF 1022 A]
- Reduction rate ([1]; PF 1022 A 25.0 mg/kg alone): 0%
- Reduction rate ([1]; PF 1022 A 50.0 mg/kg alone): 0%
- Reduction rate ([2]; PF 1022 A 5.0 mg/kg alone): 0%
- Reduction rate ([2]; PF 1022 A 10.0 mg/kg alone): 0%
- Reduction rate ([2]; PF 1022 A 25.0 mg/kg alone): 0%
- Reduction rate ([2]; PF 1022 A 50.0 mg/kg alone): 0%
- Reduction rate ([3]; PF 1022 A 0,5 mg/kg alone): 0%
- Reduction rate ([3]; PF 1022 A 1,0 mg/kg alone): 100%

Compound: Milbemycin
- action against the hookworm Uncinaria stenocephala [5]: distinct weakness in its action
